From ChEMBL document CHEMBL1137502, “Design and evaluation of analogues of the bacterial cell-wall peptidoglycan motif L-Lys-D-Ala-D-Ala for use in a vancomycin biosensor” (2007)

Test system: Staphylococcus aureus
Assay: Antibacterial activity against Staphylococcus aureus ATCC 25923 assessed as reduction of bacterial count by broth microdilution method
Assay type: functional

CN[C@H](CC(C)C)C(=O)N[C@H]1C(=O)N[C@@H](CC(N)=O)C(=O)N[C@H]2C(=O)N[C@H]3C(=O)N[C@H](C(=O)N[C@H](C(=O)O)c4cc(O)cc(O)c4-c4cc3ccc4O)[C@H](O)c3ccc(c(Cl)c3)Oc3cc2cc(c3O[C@@H]2O[C@H](CO)[C@@H](O)[C@H](O)[C@H]2O[C@H]2C[C@](C)(N)[C@H](O)[C@H](C)O2)Oc2ccc(cc2Cl)[C@H]1O [VANCOMYCIN]
Log10 cfu: 1
